In patent US11739100B2, “2,3-dihydro-1h-imidazo{1,2-a}pyrimidin-5-one and this 1,2,3,4-tetrahydropyrimido{1,2-a}pyrimidin-6-one derivatives comprising a substituted morpholine, preparation thereof and pharmaceutical use thereof” (SANOFI, priority 2012, dated 2023):

Target: T1, recombinant Vps34 (Homo sapiens, UniProt Q8NEB9)
T1 construct: purchased Invitrogen PV5126
Test: Phosphorylation of phosphatidylinositol (PI) by Vps34 in vitro, ADP detected by TR-FRET (HTRF Transcreener ADP)
Assay type: biochemical
Details: 10 μM ATP, 55 μg/ml PI, approximately 3 nM Vps34, 1 hour at ambient temperature; absolute IC50, mean of two independent experiments; read-out: IC50 activity range

T1 sequence (Q8NEB9 whole entry): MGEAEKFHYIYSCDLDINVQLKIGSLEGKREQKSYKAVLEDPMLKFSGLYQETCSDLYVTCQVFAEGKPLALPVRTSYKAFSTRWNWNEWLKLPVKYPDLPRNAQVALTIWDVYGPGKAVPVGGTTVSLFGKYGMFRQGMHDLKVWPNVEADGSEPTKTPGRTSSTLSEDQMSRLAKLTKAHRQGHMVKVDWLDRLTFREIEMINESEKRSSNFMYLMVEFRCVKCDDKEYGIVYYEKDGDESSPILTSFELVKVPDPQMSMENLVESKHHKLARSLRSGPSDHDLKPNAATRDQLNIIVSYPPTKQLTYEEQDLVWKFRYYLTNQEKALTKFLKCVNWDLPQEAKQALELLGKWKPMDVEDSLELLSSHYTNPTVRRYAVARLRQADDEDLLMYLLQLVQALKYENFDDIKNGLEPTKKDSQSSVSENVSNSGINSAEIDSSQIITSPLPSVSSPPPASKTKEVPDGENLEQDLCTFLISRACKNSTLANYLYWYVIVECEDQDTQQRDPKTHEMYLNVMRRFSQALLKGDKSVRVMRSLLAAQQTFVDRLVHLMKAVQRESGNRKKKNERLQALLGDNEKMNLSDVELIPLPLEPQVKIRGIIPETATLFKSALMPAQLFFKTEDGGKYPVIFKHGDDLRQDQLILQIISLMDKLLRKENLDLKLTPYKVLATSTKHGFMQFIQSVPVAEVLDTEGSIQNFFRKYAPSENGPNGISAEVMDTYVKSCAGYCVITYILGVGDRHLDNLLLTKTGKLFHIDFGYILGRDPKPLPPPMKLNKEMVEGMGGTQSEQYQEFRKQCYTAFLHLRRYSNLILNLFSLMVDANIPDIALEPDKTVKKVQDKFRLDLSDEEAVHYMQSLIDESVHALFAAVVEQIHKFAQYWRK

Row | SMILES | IC50
1 | C[C@@H]1COCCN1c1cc(=O)n2c(n1)N(c1ccnc(Cl)c1)CC[C@@H]2C(F)(F)F [Example 108, (R)-9-(2-Chloro-pyridin-4-yl)-2-((R)-3-methylmorpholin-4-yl)-6-trifluoromethyl-6,7,8,9-tetrahydro-pyrimido[1,2-a]-pyrimidin-4-one] | < 10 nM
2 | C[C@@H]1COCCN1c1nc2n(c(=O)c1F)CC[C@@H](C(F)(F)F)N2CC(=O)N1CCOCC1 [Example 235, (S)-3-Fluoro-2-((R)-3-methylmorpholin-4-yl)-9-(2-morpholin-4-yl-2-oxoethyl)-8-trifluoromethyl-6,7,8,9-tetrahydro-pyrimido[1,2-a]-pyrimidin-4-one] | 10 to 100 nM
3 | C[C@@H]1COCCN1c1cc(=O)n2c(n1)N(c1ccc(C(F)(F)F)nc1)[C@H](C(F)(F)F)CC2 [Example 81, (S)-2-((R)-3-Methyl-morpholin-4-yl)-8-trifluoromethyl-9-(6-trifluoromethylpyridin-3-yl)-6,7,8,9-tetrahydro-pyrimido[1,2-a]-pyrimidin-4-one] | < 10 nM
4 | C[C@@H]1COC[C@@H](C)N1c1cc(=O)n2c(n1)N(Cc1cnc(Cl)s1)[C@H](C(F)(F)F)CC2 [Example 312, (S)-9-(2-Chloro-thiazol-5-ylmethyl)-2-((3R,5R)-3,5-dimethyl-morpholin-4-yl)-8-trifluoromethyl-6,7,8,9-tetrahydro-pyrimido[1,2-a]-pyrimidin-4-one] | 10 to 100 nM
5 | C[C@@H]1COCCN1c1nc2n(c(=O)c1F)CC[C@@H](C(F)(F)F)N2CC(=O)c1cccnc1 [Example 50, (S)-3-Fluoro-2-((R)-3-methylmorpholin-4-yl)-9-(2-oxo-2-pyridin-3-ylethyl)-8-trifluoromethyl-6,7,8,9-tetrahydro-pyrimido[1,2-a]-pyrimidin-4-one] | < 10 nM
6 | Cc1noc(CN2c3nc(N4CCOC[C@H]4C)c(F)c(=O)n3C[C@@]2(C)C(F)(F)F)n1 [Example 207, (S)-6-Fluoro-2-methyl-7-((R)-3-methyl-morpholin-4-yl)-1-(3-methyl-[1,2,4]oxadiazol-5-yl-methyl)-2-trifluoromethyl-2,3-dihydro-1H-imidazo[1,2-a]-pyrimidin-5-one] | < 10 nM
7 | C[C@@H]1COCCN1c1nc2n(c(=O)c1F)C[C@@](C)(C(F)(F)F)N2CC(=O)c1ccccn1 [Example 199, (S)-6-Fluoro-2-methyl-7-((R)-3-methyl-morpholin-4-yl)-1-(2-oxo-2-pyridin-2-yl-ethyl)-2-trifluoromethyl-2,3-dihydro-1H-imidazo[1,2-a]-pyrimidin-5-one] | < 10 nM
8 | O=c1cc(N2CC3CCC(C2)O3)nc2n1CC[C@@H](C(F)(F)F)N2c1cc(F)cc(F)c1 [Example 161, (S)-9-(3,5-Difluoro-phenyl)-2-(8-oxa-3-azabicyclo[3.2.1]oct-3-yl)-8-trifluoromethyl-6,7,8,9-tetrahydro-pyrimido[1,2-a]-pyrimidin-4-one] | 10 to 100 nM
9 | CC(C)C(=O)CN1c2nc(N3CC4CCC(C3)O4)c(F)c(=O)n2CC[C@H]1C(F)(F)F [Example 274, (S)-3-Fluoro-9-(3-methyl-2-oxobutyl)-2-(8-oxa-3-aza-bicyclo[3.2.1]oct-3-yl)-8-trifluoromethyl-6,7,8,9-tetrahydro-pyrimido[1,2-a]-pyrimidin-4-one] | 10 to 100 nM
10 | COC(=O)CN1c2nc(N3CCOC[C@H]3C)c(F)c(=O)n2CC[C@H]1C(F)(F)F [Example 283, [(S)-7-Fluoro-8-((R)-3-methylmorpholin-4-yl)-6-oxo-2-trifluoromethyl-3,4-dihydro-2H,6H-pyrimido[1,2-a]-pyrimidin-1-yl]acetic acid methyl ester] | < 10 nM
11 | C[C@@H]1COCCN1c1cc(=O)n2c(n1)N(Cc1ccnc(Cl)c1)[C@](C)(C(F)(F)F)C2 [Example 181, (S)-1-(2-Chloro-pyridin-4-ylmethyl)-2-methyl-7-((R)-3-methylmorpholin-4-yl)-2-trifluoromethyl-2,3-dihydro-1H-imidazo[1,2-a]-pyrimidin-5-one] | < 10 nM

Now from value to compound:

Row | IC50 | SMILES
12 | < 10 nM | C[C@@H]1COCCN1c1cc(=O)n2c(n1)N(CC1CCCO1)[C@H](C(F)(F)F)CC2 (single isomer, unassigned) [Example 136]
13 | < 10 nM | CC(C)c1noc(CN2c3nc(N4CCOC[C@H]4C)cc(=O)n3CC[C@H]2C(F)(F)F)n1 [Example 226, (S)-9-(3-Isopropyl-[1,2,4]oxadiazol-5-yl-methyl)-2-((R)-3-methylmorpholin-4-yl)-8-trifluoromethyl-6,7,8,9-tetrahydro-pyrimido[1,2-a]-pyrimidin-4-one]
14 | < 10 nM | C[C@@H]1COCCN1c1cc(=O)n2c(n1)N(CC1CCCCO1)[C@H](C(F)(F)F)CC2 (single isomer, unassigned) [Example 138]
15 | < 10 nM | C[C@@H]1COCCN1c1cc(=O)n2c(n1)N(Cc1nccs1)[C@H](C(F)(F)F)CC2 [Example 231, (S)-2-((R)-3-Methyl-morpholin-4-yl)-9-thiazol-2-ylmethyl-8-trifluoromethyl-6,7,8,9-tetrahydro-pyrimido[1,2-a]-pyrimidin-4-one]
16 | < 10 nM | C[C@@H]1COCCN1c1cc(=O)n2c(n1)N(CC1COC1)[C@H](C(F)(F)F)CC2 [Example 133, (S)-2-((R)-3-Methyl-morpholin-4-yl)-9-oxetan-3-ylmethyl-8-trifluoromethyl-6,7,8,9-tetrahydro-pyrimido[1,2-a]-pyrimidin-4-one]
17 | < 10 nM | CO/N=C(\CN1c2nc(N3CCOC[C@H]3C)cc(=O)n2CC[C@H]1C(F)(F)F)C1CC1 (single isomer, unassigned) [Example 307]
18 | < 10 nM | C[C@@H]1COCCN1c1cc(=O)n2c(n1)N(Cc1nnc[nH]1)[C@H](C(F)(F)F)CC2 [Example 264, (S)-2-((R)-3-Methyl-morpholin-4-yl)-9-(4H-[1,2,4]triazol-3-yl-methyl)-8-trifluoromethyl-6,7,8,9-tetrahydro-pyrimido[1,2-a]-pyrimidin-4-one]
19 | < 10 nM | C[C@@H]1COCCN1c1cc(=O)n2c(n1)N(CC(=O)C1(C)CCCC1)[C@H](C(F)(F)F)CC2 [Example 253, (S)-9-[2-(1-Methyl-cyclopentyl)-2-oxo-ethyl]-2-((R)-3-methyl-morpholin-4-yl)-8-trifluoromethyl-6,7,8,9-tetrahydro-pyrimido[1,2-a]-pyrimidin-4-one]
20 | 10 to 100 nM | Cc1nnc(CN2c3nc(N4CCOC[C@H]4C)cc(=O)n3CC[C@H]2C(F)(F)F)s1 [Example 123, (S)-2-((R)-3-Methyl-morpholin-4-yl)-9-(5-methyl-[1,3,4]thiadiazol-2-yl-methyl)-8-trifluoromethyl-6,7,8,9-tetrahydro-pyrimido[1,2-a]-pyrimidin-4-one]
21 | < 10 nM | C[C@H](O)CN1c2nc(N3CCOC[C@H]3C)cc(=O)n2CC[C@H]1C(F)(F)F [Example 205, (S)-9-((S)-2-Hydroxy-propyl)-2-((R)-3-methylmorpholin-4-yl)-8-trifluoromethyl-6,7,8,9-tetrahydro-pyrimido[1,2-a]-pyrimidin-4-one]
22 | < 10 nM | C[C@@H]1COCCN1c1cc(=O)n2c(n1)N(CCO)[C@H](C(F)(F)F)CC2 [Example 315, (S)-9-(2-Hydroxy-ethyl)-2-((R)-3-methyl-morpholin-4-yl)-8-trifluoromethyl-6,7,8,9-tetrahydro-pyrimido[1,2-a]-pyrimidin-4-one]
